Earlier results in patent US20150164812A1, “Porous Tablets As Carriers For Liquid Formulations” (Veloxis Pharmaceuticals A/S, priority 2004, published 2015).
Counter-ions that a name gives are not always drawn. Like-named read-outs stand apart in the source and are kept apart here.

Columns and labels:
[1] = not given; remark: listed apart in the source
[2] = Table 1 Poorly-Soluble Drug Candidates
[3] = Table 2 Poorly-Soluble Drugs with Low Bioavailability

| SMILES | Solubility In Water [2] | Solubility In Water [3] | further results |
| --- | --- | --- | --- |
| CCc1cccc2c3c([nH]c12)C(CC)(CC(=O)O)OCC3 (stereo not drawn) [Etodolac] | Insoluble | – | – |
| OC(Cn1cncn1)(Cn1cncn1)c1ccc(F)cc1F [Fluconazole] | Slightly | – | – |
| CN[C@H]1CC[C@@H](c2ccc(Cl)c(Cl)c2)c2ccccc21 [Sertraline] | Slightly | Slightly soluble | – |
| CCCCCc1cc(O)c2c(c1)OC(C)(C)[C@@H]1CCC(C)=C[C@@H]21 [Dronabinol] | – | Insoluble | – |
| OCCN(CCO)c1nc(N2CCCCC2)c2nc(N(CCO)CCO)nc(N3CCCCC3)c2n1 [Dipyridamole] | Slightly | – | – |
| CCOC(=O)C1=C(C)NC(C)=C(C(=O)OC)C1c1cccc(Cl)c1Cl (stereo not drawn) [Felodipine] | Insoluble | Insoluble | – |
| CCOC(=O)[C@H](CCc1ccccc1)N[C@@H](C)C(=O)N1CCC[C@H]1C(=O)O [Enalapril] | Sparingly | – | – |
| CO[C@]12C[C@@H](COC(=O)c3cncc(Br)c3)CN(C)[C@@H]1Cc1cn(C)c3cccc2c13 [Nicergoline] | Insoluble | – | – |
| CO/N=C(\C(=O)N[C@@H]1C(=O)N2C(C(=O)O)=C(COC(C)=O)CS[C@H]12)c1csc(N)n1 [Cefotaxime] | Sparingly | – | – |
| C=CCC1(CC(C)C)C(=O)NC(=O)NC1=O [Butalbital] | Insoluble | – | – |
| CCOC(=O)[C@H](CCc1ccccc1)N[C@@H](C)C(=O)N1[C@H](C(=O)O)C[C@@H]2CCC[C@@H]21 [Ramipril] | Insoluble | – | – |
| Cc1ccc(-c2nc3ccc(C)cn3c2CC(=O)N(C)C)cc1 [Zolpidem] | Sparingly | – | – |
| CC(=O)O[C@H]1C(=O)[C@@]2(C)[C@H]([C@H](OC(=O)c3ccccc3)[C@]3(O)C[C@H](OC(=O)[C@H](O)[C@@H](NC(=O)c4ccccc4)c4ccccc4)C(C)=C1C3(C)C)[C@]1(OC(C)=O)CO[C@@H]1C[C@@H]2O [Paclitaxel] | Insoluble | – | – |
| CN1CCCC(n2nc(Cc3ccc(Cl)cc3)c3ccccc3c2=O)CC1 (stereo not drawn) [Azelastine] | Insoluble | – | – |
| CC(C)(C)NC(=O)[C@H]1CC[C@H]2[C@@H]3CC[C@H]4NC(=O)C=C[C@]4(C)[C@H]3CC[C@]12C [Finasteride] | Insoluble | – | – |
| COc1cc2nc(N3CCN(C(=O)C4COc5ccccc5O4)CC3)nc(N)c2cc1OC (stereo not drawn) [Doxazosin] | Slightly | – | – |
| C[C@@](Cc1ccc(O)c(O)c1)(NN)C(=O)O [Carbidopa] | Slightly | – | – |
| CC1CC(OC(=O)C(O)c2ccccc2)CC(C)(C)C1 (stereo not drawn) [Cyclandelate] | – | Insoluble | Bioavailability ([1]; in words): Low |
| CC1=C(/C=C/C(C)=C/C=C/C(C)=C\C(=O)O)C(C)(C)CCC1 [Isotretinoin] | Insoluble | – | – |
| COc1ccc2cc(CCC(C)=O)ccc2c1 [Nabumetone] | Insoluble | Insoluble | – |
| COc1cc([C@@H]2c3cc4c(cc3[C@@H](O[C@@H]3O[C@@H]5CO[C@@H](C)O[C@H]5[C@H](O)[C@H]3O)[C@H]3COC(=O)[C@H]23)OCO4)cc(OC)c1O [Etoposide] | Very Slightly | – | – |
| OCCN1CCN(CCCN2c3ccccc3Sc3ccc(C(F)(F)F)cc32)CC1 [Fluphenazine] | – | Insoluble | – |
| COc1ccc(CCN2CCC(Nc3nc4ccccc4n3Cc3ccc(F)cc3)CC2)cc1 [Astemizole] | Insoluble | Insoluble | Bioavailability ([1]; in words): Low-moderate |
| O=C1NC(=O)C(c2ccccc2)(c2ccccc2)N1 [Phenytoin] | Insoluble | – | – |
| Cc1cccc(Nc2ccccc2C(=O)O)c1C [Mefenamic acid] | Slightly | – | – |
| CC(CCc1ccc(O)cc1)NCCc1ccc(O)c(O)c1 (stereo not drawn) [Dobutamine] | Sparingly | – | – |

| SMILES | Solubility In Water [2] | Solubility In Water [3] | further results |
| --- | --- | --- | --- |
| CN1C(C(=O)Nc2ccccn2)=C(O)c2ccccc2S1(=O)=O [Piroxicam] | Sparingly | – | – |
| Cc1c(OCC(F)(F)F)ccnc1C[S+]([O-])c1nc2ccccc2[nH]1 (stereo not drawn) [Lansoprazole] | Insoluble | – | – |
| CC(C)(C)c1ccc(C(O)CCCN2CCC(C(O)(c3ccccc3)c3ccccc3)CC2)cc1 (stereo not drawn) [Terfenadine] | Slightly | – | – |
| C[C@]12CC[C@H]3[C@@H](CCC4=CC(=O)CC[C@@]43C)[C@@H]1CC[C@@H]2O [Testosterone] | – | Insoluble | Bioavailability ([1]; in words): Low |
| OCCN1CCN(CCCN2c3ccccc3Sc3ccc(Cl)cc32)CC1 [Perphenazine] | – | – | Bioavailability ([1]; in words): Low |
| NC(N)=Nc1nc(CSCCC(N)=NS(N)(=O)=O)cs1 [Famotidine] | Slightly | Slightly soluble | – |
| COCCCC/C(=N\OCCN)c1ccc(C(F)(F)F)cc1 [Fluvoxamine] | Sparingly | – | – |
| CC(=O)S[C@@H]1CC2=CC(=O)CC[C@]2(C)[C@H]2CC[C@@]3(C)[C@@H](CC[C@@]34CCC(=O)O4)[C@H]12 [Spironolactone] | – | Insoluble | – |
| NC(=O)N1c2ccccc2C=Cc2ccccc21 [Carbamazepine] | Insoluble | – | – |
| CC(=O)OC[C@H]1O[C@@H]([S-])[C@H](OC(C)=O)[C@@H](OC(C)=O)[C@@H]1OC(C)=O.CCP(CC)CC.[Au+] [Auranofin] | – | Slightly soluble | Bioavailability ([1]; in vivo): Low (15-25%) |
| CN1CCC[C@@H]1CCO[C@](C)(c1ccccc1)c1ccc(Cl)cc1 [Clemastine fumarate] | – | Slightly soluble | – |
| CC(C)Cc1ccc(C(C)C(=O)O)cc1 (stereo not drawn) [Ibuprofen] | Insoluble | – | – |
| COC(=O)C1=C(C)NC(C)=C(C(=O)OC(C)C)C1c1cccc2nonc12 (stereo not drawn) [Isradipine] | Insoluble | Insoluble | – |
| CC[C@H](C)C(=O)O[C@H]1C[C@@H](C)C=C2C=C[C@H](C)[C@H](CC[C@@H]3C[C@@H](O)CC(=O)O3)[C@H]21 [Lovastatin] | Insoluble | Insoluble | – |
| COc1ccc2[nH]c([S+]([O-])Cc3ncc(C)c(OC)c3C)nc2c1 (stereo not drawn) [Omeprazole] | Slightly | – | – |
| CC(C(=O)O)c1ccc(-c2ccccc2)c(F)c1 (stereo not drawn) [Flurbiprofen] | Slightly | – | – |
| CC(=O)N1CCN(c2ccc(OCC3COC(Cn4ccnc4)(c4ccc(Cl)cc4Cl)O3)cc2)CC1 (stereo not drawn) [Ketoconazole] | Insoluble | – | – |
| C[C@@H]1C[C@H]2[C@@H]3CCC4=CC(=O)C=C[C@]4(C)[C@@]3(Cl)[C@@H](O)C[C@]2(C)[C@@]1(O)C(=O)CCl [Mometasone] | Insoluble | – | – |
| CCOC(=O)[C@H](CCc1ccccc1)N[C@@H](C)C(=O)N1Cc2ccccc2C[C@H]1C(=O)O [Quinapril] | Insoluble | – | – |
| O=[N+]([O-])O[C@H]1CO[C@H]2[C@@H]1OC[C@H]2O[N+](=O)[O-] [Isosorbide dinitrate] | Sparingly | Sparingly soluble | – |
| OC(CCN1CCCCC1)(c1ccccc1)C1CC2C=CC1C2 (stereo not drawn) [Biperiden] | – | Sparingly soluble | – |
| C#C[C@]1(O)CC[C@H]2[C@@H]3CCC4=Cc5oncc5C[C@]4(C)[C@H]3CC[C@@]21C [Danazol] | – | – | Bioavailability ([1]; in words): Low |
| CN1CCN(C2=Nc3cc(Cl)ccc3Nc3ccccc32)CC1 [Clozapine] | Slightly | – | – |
| Cc1nnc2n1-c1ccc(Cl)cc1C(c1ccccc1)=NC2 [Alprazolam] | Insoluble | – | – |
